What was measured:
[1] = target: T1, TRPA1 (Homo sapiens, UniProt O75762); experiment: Calcium imaging of HEK293 cells transiently expressing WT TRPA1; assay type: cell-based; conditions: for calcium response of cells transfected with the vector backbone alone: 100 μM iodoacetamide, control vector; for calcium response of cells transfected with the vector backbone alone / calcium response of cells expressing WT TRPA1: 1 mM H2O2 or 100 μM 4-HNE; for EC50: concentration-Ca2+ response, HEK-293 cells transfected with WT TRPA1
T1 construct: expressed in transfected cells; host or cells: HEK293
Method: (§1) Calcium Imaging and Analysis Calcium imaging and analysis was performed as previously described (See Meixiong, J. et al. Elife 8, (2019)). Briefly, cells were imaged in calcium imaging buffer (CIB; 10 mM HEPES, 1.2 mM NaHCO3, 130 mM NaCl, 3 mM KCl, 2.5 mM CaCl2, 0.6 mM MgCl2, 20 mM glucose, and 20 mM sucrose at pH 7.4 and 290-300 mOsm). To monitor changes in intracellular [Ca^2+]([Ca^2+]i), cells were loaded with either 1 μM Fura 2-AM (HEK293 cells) or 1 μM Fluo 4-AM (trigeminal neurons) for 30 min in the dark at 37° C. in CIB just prior to imaging. With Fura 2-AM, emission at 510 nm was monitored following excitation at both 340 nm and 380 nm. With Fluo 4-AM, emission at 520 nm was monitored following excitation at 488 nm. Cells were identified as positively responding if [Ca^2+]i rose by 15% compared to baseline. Damaged, detached, high-baseline, and motion-activated cells were excluded from analysis.
(§2) HEK293 cells were plated on poly-D-lysine-coated coverslips and transiently transfected with the vector backbone or constructs encoding WT or mutant TRPA1. Unless otherwise noted, cells were imaged for 30 s to establish a baseline before compounds were added. Vehicle was first applied for 30 s, after which 100 μM iodoacetamide, 1 mM H2O2, or 100 μM 4-HNE was applied. CSF from cases and controls was diluted into calcium imaging buffer 1:50 prior to each trial. 50 μM of the non-selective TRP channel inhibitor ruthenium red was applied at the end of every imaging trial.

[2] = target: T2, mutant TRPA1 (Cys621, Cys641, Cys665, Lys721) (Homo sapiens, UniProt O75762, C621S/C641S/C665S); experiment: Calcium imaging of HEK293 cells transiently expressing mutant TRPA1; assay type: cell-based; conditions: 100 μM iodoacetamide, 1 mM H2O2 or 100 μM 4-HNE
T2 construct: expressed in transfected cells; host or cells: HEK293
Method: as §1, §2
(§3) ROS directly activated TRPA1 by covalently bonding or modifying a network of cysteine and lysine residues within the channel. Extensive work by several groups has pinpointed a collection of key residues in TRPA1, including Cys421, Cys621, Cys641, Cys665, and Lys721. To test which residues among these sense H2O2 and 4-HNE, each was mutated individually and in various combinations (FIGS. 7A and 7B). Triply mutating cysteines Cys621, Cys641, Cys665 to serine rendered TRPA1 insensitive to both iodoacetamide and H2O2 (FIGS. 2D-2E). […] These four residues position TRPA1 as both a key sensor and transducer of oxidative stress.

[3] = test system: NRF2; experiment: NRF2/ARE Luciferase Reporter Assay (HEK293 stable cell line); assay type: cell-based, human; conditions: NRF2-dependent luciferase activity, cells treated for 6 hours; read-out: EC50 for stimulating NRF2
Method: NRF2/ARE Luciferase Reporter Assay NRF2 activity was monitored with a reporter cell line in which changes in NRF2 activity are coupled to the expression of firefly luciferase (NRF2/ARE Luciferase Reporter HEK293 Stable Cell Line). Luciferase activity was quantified with the Luciferase Assay System as per the manufacturer's instructions. Briefly, cells were plated at 125,000 cells/well in a 24-well plate. The following day, cells were treated with either vehicle or varying doses of sulforaphane, exemestane, or JQ-1 for 6 hours. Cells were then lysed in passive lysis buffer (Promega E1941) supplemented with protease inhibitors (Sigma). Lysates were then cleared at 16,000 g for 15 minutes at 4° C. 15 μL of each lysate was mixed with 5 μL of luciferase assay substrate (Promega). Total light was measured using a luminometer with a 10 second integration time with a delay of 2 seconds. Luciferase measurements were normalized to total protein and reported as normalized to the vehicle condition.

[4] = test system: constrictive mouse model of trigeminal neuralgia; experiment: Cold allodynia (ice-cold acetone) after constriction of the maxillary nerve; assay type: in vivo; conditions: NRF2−/− mice; AM-0902 30 mg/kg, p.o., 30 min prior to behavior testing
[5] = test system: constrictive mouse model of trigeminal neuralgia; experiment: Mechanical allodynia (Von Frey filament) after constriction of the maxillary nerve; assay type: in vivo; conditions: NRF2−/− mice; AM-0902 30 mg/kg, p.o., 30 min prior to behavior testing
[6] = test system: constrictive mouse model of trigeminal neuralgia; experiment: Cold allodynia (ice-cold acetone) after constriction of the maxillary nerve; assay type: in vivo; conditions: WT mice, vs vehicle
Method: (§4) Constriction of the Maxillary Nerve Constriction of the maxillary division of trigeminal nerve was performed as previously described (See Benedetti, A., et al., Biochimica Et Biophysica Acta Bba—Lipids Lipid Metabolism 620, 281-296 (1980) and Vos, B., et al J Neurosci 14, 2708-2723 (1994)). The procedure was performed under direct visualization and control with a surgical microscope. Mice were first anesthetized with ketamine (100 mg/kg, i.p.) and xylazine (12.5 mg/kg, i.p.) and monitored by pinching the skin between the toes with forceps and monitoring for withdrawal. Mice were restrained with adhesive tape to a sterilized polystyrene board. Upon sufficient anesthesia, the scalp was shaved and an anterior to posterior skin incision was made at the midline to expose the nasal and maxillary bones. The maxillary nerve was exposed and carefully dissected free from the surrounding connective tissue. The distal end of the maxillary nerve was then loosely constricted using 8-0 silk sutures as a ligature. The sutures were tied using a slip knot followed by a normal knot, after which any remaining suture was cut free. The incision was then closed with a 4-0 silk suture. In the sham procedure, the left maxillary nerve was exposed but not constricted. Mice were monitored and rehydrated until fully recovered from anesthesia.
(§5) Pharmacologic Treatments Mice were dosed with either sulforaphane (10 mg/kg, i.p.), exemestane (10 mg/kg, i.p.), letrozole (10 mg/kg, i.p.), (+)-JQ-1 (40 mg/kg, i.p.), (−)-JQ-1 (40 mg/kg, i.p.), or ascorbate (100 mg/kg, i.p.) as indicated below. Mice were first dosed daily for two days before surgery and again daily just after behavior testing. For local exemestane treatment, exemestane (5 μL, 25 μg total) was applied directly to the maxillary nerve. Mice received a single dose during surgery. Mice were dosed with AM-0902 (30 mg/kg, p.o.). Mice were treated with AM-0902 were dosed 30 min prior to behavior testing. Mice were dosed with tamoxifen (75 mg/kg, i.p.). Mice were dosed once every 24 hrs over 5 consecutive days. Behavioral and molecular tests were only performed 7 or more days after the final tamoxifen injection.
Cold Allodynia Cold allodynia was assessed in C57BL/6J, TRPA1^+/+, TRPA1^−/−, Keap1(f/f), and Keap1(f/f)/CMV-CreER mice using ice-cold acetone as previously outlined (See Yoon, C., et al., Pain 59, 369-376 (1994)). Animals were placed individually in transparent plastic boxes and allowed to acclimatize to the environment for at least 30 min before testing. After habituation, 20 μl of cold acetone was applied to the ligated vibrissal pad skin surface. Cold allodynia was measured as the average time spent wiping the region in a 60 s period, with a maximum of 5 seconds between bouts of wiping. Allodynia was measured three times with 10 min between intervals. Changes in cold allodynia were considered relative to sham- or vehicle-treated animal controls. Behavior was assessed concomitantly or in a blocked manner with consideration for both genotype and treatment.

[7] = test system: constrictive mouse model of trigeminal neuralgia; experiment: Mechanical allodynia (Von Frey filament) after constriction of the maxillary nerve; assay type: in vivo; conditions: WT mice, vs vehicle
Method: as §4, §5
Mechanical Allodynia Mechanical allodynia was assessed in C57BL/6J, TRPA1^+/+, TRPA1^−/−, Keap1(f/f), and Keap1(f/f/CMV-CreER mice using a Von Frey filament as previously outlined (See Benedetti, A., et al., Biochimica Et Biophysica Acta Bba—Lipids Lipid Metabolism 620, 281-296 (1980) and Vos, B., et al J Neurosci 14, 2708-2723 (1994)). Animals were placed individually in transparent plastic boxes and allowed to acclimate to the environment for at least 30 min before testing. After habituation, a 0.04 g force Von Frey filament was used to stimulate the territory innervated by the maxillary nerve, including the vibrissal skin pad. Each mouse's response to the filament was scored from 0-4 on the scale below. Each mouse was scored ten times per day. Changes in mechanical allodynia were considered relative to sham- or vehicle-treated animal controls. Behavior was assessed concomitantly or in a blocked manner with consideration for both genotype and treatment. • 0—no response • 1—non-defensive response to the stimulus (e.g., mouse non-defensively explores filament) • 2—withdrawal response (e.g., mouse turns head away from filament) • 3—escape/attack response (e.g., mouse moves body away from filament and assumes crouching position against the box wall; actively attacks filament by biting and/or grabbing) • 4—asymmetric face grooming (e.g., mouse wipes stimulated facial area in uninterrupted series of at least three face-wash strokes)

[8] = test system: mutant TRPA1 (Cys621, Cys641, Cys665, Lys721); experiment: Calcium imaging of HEK293 cells transiently expressing mutant TRPA1; assay type: cell-based; conditions: 100 μM 4-HNE
Method: as §1, §2, §3

[9] = AM-0902 30 mg/kg, p.o., 30 min prior to behavior testing
[10] = i.p. daily for two days before surgery and daily after behavior testing, sulforaphane, exemestane, letrozole 10 mg/kg, JQ-1 40 mg/kg, ascorbate 100 mg/kg

T1 sequence (O75762 whole entry): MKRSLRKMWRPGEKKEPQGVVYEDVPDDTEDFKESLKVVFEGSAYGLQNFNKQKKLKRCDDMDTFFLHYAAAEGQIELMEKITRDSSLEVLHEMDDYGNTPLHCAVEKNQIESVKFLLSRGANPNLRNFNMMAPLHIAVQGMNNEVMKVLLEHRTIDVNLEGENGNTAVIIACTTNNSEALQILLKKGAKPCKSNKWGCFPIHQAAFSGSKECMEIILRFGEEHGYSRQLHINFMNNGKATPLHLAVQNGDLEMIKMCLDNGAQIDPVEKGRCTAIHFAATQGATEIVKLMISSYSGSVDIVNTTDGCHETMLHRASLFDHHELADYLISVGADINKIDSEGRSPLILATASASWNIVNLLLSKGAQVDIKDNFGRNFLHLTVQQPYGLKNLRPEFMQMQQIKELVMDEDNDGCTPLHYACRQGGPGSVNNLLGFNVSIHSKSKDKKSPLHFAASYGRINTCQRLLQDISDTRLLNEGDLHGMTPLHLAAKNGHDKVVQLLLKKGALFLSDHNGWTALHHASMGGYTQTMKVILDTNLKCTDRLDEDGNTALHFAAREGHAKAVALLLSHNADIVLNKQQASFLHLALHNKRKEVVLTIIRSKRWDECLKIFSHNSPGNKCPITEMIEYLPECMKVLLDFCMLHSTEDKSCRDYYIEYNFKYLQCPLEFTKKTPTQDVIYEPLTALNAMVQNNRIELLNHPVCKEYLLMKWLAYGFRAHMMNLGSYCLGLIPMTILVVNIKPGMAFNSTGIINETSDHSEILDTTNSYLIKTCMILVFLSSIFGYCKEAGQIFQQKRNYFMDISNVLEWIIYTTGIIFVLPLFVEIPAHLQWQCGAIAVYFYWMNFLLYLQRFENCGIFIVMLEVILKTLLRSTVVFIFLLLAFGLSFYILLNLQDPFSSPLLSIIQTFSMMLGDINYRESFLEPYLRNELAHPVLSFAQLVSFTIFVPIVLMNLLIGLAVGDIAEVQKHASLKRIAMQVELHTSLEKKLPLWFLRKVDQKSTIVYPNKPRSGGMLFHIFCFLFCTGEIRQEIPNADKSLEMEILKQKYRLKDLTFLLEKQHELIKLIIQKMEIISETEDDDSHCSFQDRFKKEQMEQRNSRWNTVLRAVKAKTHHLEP
T2 sequence (O75762 whole entry C621S/C641S/C665S): as the sequence (O75762 whole entry) above, with C621S, C641S, C665S counted along it

SMILES	calcium response of cells transfected with the vector backbone alone [1]	calcium response of cells expressing WT TRPA1 [1]	EC50 [1] [µM]	sensitivity of triple mutant TRPA1 (Cys621, Cys641, Cys665 to serine) [2]	EC50 [3] [µM]	other results
OO [H2O2]	Neither iodoacetamide, H2O2, nor 4-HNE elicited a calcium response	activated cells expressing TRPA1	133	insensitive	14	–
Cn1cnc2ncn(Cc3nc(CCc4ccc(Cl)cc4)no3)c(=O)c21 [AM-0902, 1-({3-(2-(4-chlorophenyl)ethyl]-1,2,4-oxadiazol-5-yl}methyl)-7-methylpurin-6-one]	–	–	–	–	–	cold allodynia [4]: lowered; mechanical allodynia [5]: lowered; cold allodynia [6, 9]: reduced; mechanical allodynia [7, 9]: reduced
CCCCCC(O)/C=C/C=O (stereo not shown) [4-HNE, 4-hydroxynonenal]	Neither iodoacetamide, H2O2, nor 4-HNE elicited a calcium response	activated cells expressing TRPA1	48	still activated	12	sensitivity of triple cysteine mutant TRPA1 after also mutating Lys721 [8]: no longer sensitive
N#Cc1ccc(C(c2ccc(C#N)cc2)n2cncn2)cc1 [letrozole]	–	–	–	–	–	cold allodynia (ice-cold acetone) [6, 10]: neither letrozole nor (−)-JQ-1 did; mechanical allodynia (sensitivity to crude touch) [7, 10]: neither letrozole nor (−)-JQ-1 did
NC(=O)CI [iodoacetamide]	Neither iodoacetamide, H2O2, nor 4-HNE elicited a calcium response	–	–	insensitive	–	–

— patent US20250064846A1, “TREATMENT AND PREVENTION OF TRIGEMINAL NEURALGIA” (THE JOHNS HOPKINS UNIVERSITY, priority 2022, published 2025)
